These results are taken from article PMC7370187, “Screening of an Epigenetic Drug Library Identifies 4-((hydroxyamino)carbonyl)-N-(2-hydroxyethyl)-N-Phenyl-Benzeneacetamide that Reduces Melanin Synthesis by Inhibiting Tyrosinase Activity Independently of Epigenetic Mechanisms” (International Journal of Molecular Sciences, 2020).

“Also recorded” adds a separate entry of the source.

The target in data set [1] is T1, human TYR (Homo sapiens, UniProt P14679).
T1 construct: expressed in transfected cells; Triton X-100 lysate supernatant
T1 sequence (P14679 19-529): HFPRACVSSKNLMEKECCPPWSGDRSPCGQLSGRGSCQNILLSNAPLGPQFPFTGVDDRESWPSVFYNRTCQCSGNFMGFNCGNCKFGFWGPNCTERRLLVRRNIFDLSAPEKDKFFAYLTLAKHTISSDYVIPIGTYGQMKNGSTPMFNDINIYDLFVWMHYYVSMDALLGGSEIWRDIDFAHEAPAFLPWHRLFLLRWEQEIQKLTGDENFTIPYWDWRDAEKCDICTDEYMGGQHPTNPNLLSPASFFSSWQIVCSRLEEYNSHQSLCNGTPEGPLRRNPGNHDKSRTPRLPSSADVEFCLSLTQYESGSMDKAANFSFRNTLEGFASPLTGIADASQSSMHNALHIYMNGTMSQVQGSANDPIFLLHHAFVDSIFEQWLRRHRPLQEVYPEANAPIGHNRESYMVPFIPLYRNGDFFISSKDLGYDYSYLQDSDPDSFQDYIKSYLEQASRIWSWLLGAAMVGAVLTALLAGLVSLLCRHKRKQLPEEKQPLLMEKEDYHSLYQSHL
More on the design: method as in PMID 31382682, PMID 23476698, PMID 26914711. The following applies: HEK293-TYR; ref [43],[45],[47]; cited from earlier work.

The nature of data set [2]: Copper chelating activity assay (pyrocatechol violet). The following applies: 200 μM test compound, 200 μM copper ions, 200 μM pyrocatechol violet, absorbance 632 nm. The format is physicochemical. As for the experimental part:
Copper chelating activity was determined by using pyrocatechol violet (Sigma-Aldrich). […] The reaction mixture containing a potential chelator at varied concentrations, 200 μM CuSO4, and 200 μM pyrocatechol violet was incubated at 25 °C for 20 min, and its absorption spectra were recorded using a Shimadzu UV-1650PC spectrophotometer (Shimadzu Corporation, Kyoto, Japan). Copper chelating activity was evaluated by the change in the absorbance of pyrocatechol violet at 632 nm.

In data set [3] the test system is cellular melanin production. Set-up: method as in earlier work. The following applies: ref [55] Baek et al.; cited from earlier work.
The target of data set [4] is T1, human TYR. Description: In vitro TYR catalytic activity assay, lysate of HEK293-TYR cells. The format is biochemical. The following applies: each drug at 1.0 μM, library screening. How it is done: (§1) To examine the direct effect of a drug on the catalytic activity of TYR, in vitro experiments were undertaken. Lysate of B16F10 cells stimulated with α-MSH for 24 h was used as a murine TYR preparation. Human TYR preparation was the lysate of human embryonic kidney 293 cells constitutively expressing human TYR (HEK293-TYR). […] The TYR activity assay mixture (200 μL) consisted of 100 mM sodium phosphate buffer (pH 6.8), TYR preparation (40 μg protein), a drug at various concentrations, 1.0 mM L-tyrosine, and 42 μΜ L-DOPA. For enzyme kinetic study, the concentrations of L-tyrosine plus L-DOPA were varied while their relative ratio was kept the same as the standard assay condition. […] The reactions were also performed in the absence of a TYR preparation to correct for the effects of non-enzymatic reactions. Enzyme activity was calculated as follows: activity (% control) = (C−D)/(A−B) × 100, where A and B are the absorbance changes of the control group with and without enzyme, respectively, while C and D are the absorbance changes of the test group with and without enzyme, respectively.

Data set [5] relates to B16-F10 murine melanoma cells. The data set is described as follows: Screening assay for overall melanin synthesis (OD 400 nm) in α-MSH-stimulated cells. The following applies: 100 nM α-MSH, 72 h; for relative melanin synthesis (OD 400 nm): drug 1.0 μM. The format is cell-based. How it is done: For the screening assay, B16-F10 cells were plated in 96-well plates (3 × 10^3 cells per well) and cultured for 24 h. The cells were then treated with a test drug at 1.0 μM for 60 min, and subsequently stimulated with 0.1 μM α-MSH for 72 h. Overall melanin synthesis was estimated by measuring the absorbance of each well (cells plus medium, without cell lysis) at 400 nm using a Spectrostar Nano microplate reader (BMG LABTECH GmbH, Ortenberg, Germany).

Data set [6] concerns B16-F10 cells. The data set is described as follows: Cell viability assay (MTT). The format is cell-based, murine. The following applies: 48 h; for relative viability: drug 1.0 μM. How it is done: Cell viability was evaluated using 3-(4,5-dimethylthiazol-2-yl)-2,5-diphenyltetrazolium bromide (MTT). After treatment of B16-F10 cells with each drug for 48 h, cells were washed with phosphate-buffered saline (PBS) and incubated for 2 h in the culture medium containing 1 mg∙mL^−1 MTT (Amresco, Solon, OH, USA). The medium was discarded by aspiration, the formazan dye deposited inside the cells was extracted with isopropanol, and absorbance was measured at 595 nm using a Spectrostar Nano microplate reader.

For data set [7], the system named is mushroom TYR. Set-up: method as in earlier work. The following applies: ref [55] Baek et al.; read-out: IC50, catalytic activity of mushroom TYR in vitro; cited from earlier work.
The target of data set [8] is T2, murine TYR (Mus musculus, UniProt P11344).
T2 construct: One is the protein extract of B16F10 cells stimulated by α-MSH and thus expresses a high amount of TYR; endogenous in cells; host or cells: B16F10 murine melanoma cells stimulated with α-MSH for 24 h; Triton X-100 lysate supernatant
T2 sequence (P11344 19-533): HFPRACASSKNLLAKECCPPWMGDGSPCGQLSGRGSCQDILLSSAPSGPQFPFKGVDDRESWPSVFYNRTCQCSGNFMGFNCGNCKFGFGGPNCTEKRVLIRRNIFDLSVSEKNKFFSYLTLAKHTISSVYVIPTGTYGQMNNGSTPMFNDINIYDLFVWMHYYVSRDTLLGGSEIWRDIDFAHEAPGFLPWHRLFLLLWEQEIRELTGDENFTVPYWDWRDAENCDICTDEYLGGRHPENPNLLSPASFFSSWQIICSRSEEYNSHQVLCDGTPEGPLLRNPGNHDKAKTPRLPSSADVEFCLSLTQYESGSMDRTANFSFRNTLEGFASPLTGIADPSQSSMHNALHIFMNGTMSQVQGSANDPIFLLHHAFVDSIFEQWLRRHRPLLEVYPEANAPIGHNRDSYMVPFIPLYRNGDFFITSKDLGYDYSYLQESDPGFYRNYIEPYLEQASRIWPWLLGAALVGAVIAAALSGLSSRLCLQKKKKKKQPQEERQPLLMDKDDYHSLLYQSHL
Description: In vitro TYR catalytic activity assay, lysate of α-MSH-stimulated B16F10 cells. Particulars: murine TYR, varying substrate concentrations. The format is biochemical. How it is done:
as §1

Data set [9] relates to TYR. Description: In vitro TYR catalytic activity, murine and human TYR given together (abstract). The following applies: range over human and murine TYR preparations. The format is biochemical. As for the experimental part:
as §1

As a reminder, the IC50 is the concentration needed to halve the response being measured. For the compound `O=C(O)/C=C/c1ccc(O)cc1` [p-coumaric acid], the IC50 in data set [1] was 4 µM.

`O=c1cc(CO)occ1O` [kojic acid]: in data set [2], the copper ions chelated was 36%. The 50% inhibitory concentration (IC50) in data set [3] is 2000 µM.

Consider `Cn1c(C=CC(=O)NO)ccc1C=CC(=O)c1cccc(F)c1` [M3, 3-(5-(3-(3-Fluorophenyl)-3-oxopropen-1-yl)-1-methyl-1H-pyrrol-2-yl)-N-hydroxy-2-propenamide], for which the “human TYR inhibitory effect” value in data set [4] is reported as “potent TYR inhibitory effects; also recorded: showed excellent inhibitory action”. Moreover, in data set [5], the “relative melanin synthesis (OD 400 nm)” value was “showed no melanin inhibitory action”.

For `O=C(C=Cc1cccc(C(=O)NO)c1)NO` [H4, N-hydroxy-3-(3-(hydroxyamino)-3-oxo-1-propen-1-yl)-benzamide], the relative viability entry in [6] is given as “without reducing cell viability”. Also, the “cytotoxicity (relative viability)” value in [6] (drug at various concentrations) was “showed toxicity at 3 μM and higher concentrations”. The “human TYR inhibitory effect” value in [4] is “potent TYR inhibitory effects”. In data set [5], the “relative melanin synthesis (OD 400 nm)” value is “markedly inhibited cellular melanin synthesis”. Further, in data set [5] (drug at varied concentrations), the “melanin synthesis (OD 400)” value is given as “attenuated by both drugs in a dose-dependent manner”.

Regarding `COc1cc2c(NC3CCN(C(C)C)CC3)nc(C3CCCCC3)nc2cc1OCCCN1CCCC1` [C3, UNC0638], the relative viability result in [6] is given as “showed strong cytotoxicity”.

For `O=C(NO)c1ccc(C(=O)NC23CC4CC(CC(C4)C2)C3)cc1` [1b, N1-Adamantyl-N4-hydroxyterephthal amide], the IC50 in data set [3] is 7.46 µM; in [7], 8.99 µM.

In the case of `OC[C@H]1O[C@@H](Oc2ccc(O)cc2)[C@H](O)[C@@H](O)[C@@H]1O` [β-arbutin, 4-hydroxyphenyl-β-D-glucopyranoside], in data set [8], the “inhibition type (Lineweaver–Burk plots)” value is recorded as “competitive inhibition”. Besides, in [2], the copper ions chelated result is recorded as “did not show copper chelating activity”. In addition, the IC50 in data set [9] was in the range of 500 to 700 µM.

For the compound `COc1ccc(Cn2ccc3ccc(C(=O)NO)cc32)cc1` [A5, N-Hydroxy-1-((4-methoxyphenyl)methyl)-1H-indole-6-carboxamide], in data set [4], the “human TYR inhibitory effect” value is on record as “potent TYR inhibitory effects; also recorded: showed excellent inhibitory action”. In addition, the “relative melanin synthesis (OD 400 nm)” value in [5] is listed as “showed no melanin inhibitory action”.

On to `O=c1cc(-c2ccc(O)c(O)c2)oc2cc(OS(=O)(=O)O)cc(O)c12` [luteolin 7-sulfate], for which the IC50 in data set [1] is 8.2 µM.

For the compound `CCN(CC)Cc1ccc2cc(COC(=O)Nc3ccc(C(=O)NO)cc3)ccc2c1.Cl.O` [C10, (6-((diethylamino)methyl)naphthalen-2-yl)methyl (4-(hydroxycarbamoyl)phenyl)carbamate hydrochloride hydrate], in data set [4], the “human TYR inhibitory effect” value is recorded as “potent TYR inhibitory effects; also recorded: showed excellent inhibitory action”.

`O=C(NO)c1ccc(NC(=O)C23CC4CC(CC(C4)C2)C3)cc1` [1a, 4-(Adamantanecarboxamido)-N-hydroxybenzamide]: the 50% inhibitory concentration (IC50) in [3] is 3.78 µM; in [7], 12 µM.
